Experimental data: patent publication US20230000924A1, “COMPOSITIONS AND METHODS FOR GENERATION OF SINOATRIAL NODE-LIKE CELLS AND THEIR USE IN DRUG DISCOVERY” (Cornell University, priority 2019, published 2023)

System: GATA5-induced progenitors
Test: qRT-PCR-based chemical screen in GATA5-induced murine ESC progenitors
Assay type: cell-based
From the text: FIG. 5. Optimization of the protocol for the derivation of SAN-like cells from hPSCs a, Schematic representation of the murine differentiation protocol and qRT-PCR analysis for the expression levels of TBX3, TBX18 and SHOX2 following induction of GATA4, GATA5 or GATA6 at day 4. Fold change was normalized to level using the iGATA6 line; b, Heatmap illustration of the qPCR results of transcription-screen for TBX3, TBX18 and SHOX2; hit compounds (EGF inhibitors) from plates 1 and 3 are circled. c, The activity of tyrphostin AG490 and 2NP on the expression of TBX3, TBX18 and SHOX2; d, The activity of cucurbitacin (STAT3 inhibitor) on expression of MYH6; e, qRT-PCR analysis for TBX3, TBX18 and SHOX2 in S1+RA (left) and S1+cucurbitacin (right); f, The percentage of SHOX2:GFP^+ cells treated with different EGF inhibitors (left) and dose-response curve for effects of Tyrphostin AG490 on the percentage of SHOX2:GFP^+ cells. Fold changes were normalized to DMSO-treated group unless stated otherwise.
We developed a protocol that maximizes the generation of pluripotent stem cell-derived SAN pacemaker lineages (PSC-SAN). […] We therefore applied GATA5-induced progenitors to an unbiased qRT-PCR-based chemical screen using annotated pathway modulating compounds to identify modulators that further enhance the expression of TTS and specification toward pacemaker lineage. […]

Substance: cucurbitacin
- expression levels of nodal and atrial structural marker MYH6: enhances the expression levels
